This note sets out measurements from patent US8501246B2, “Cosmetic composition containing lingonberry extract and its uses” (Beijing Gingko Group Biological Technology, Co., Ltd., priority 2007, dated 2013).

Molecules are shown by their SMILES.

Holding throughout (assay type): cell-based
Assay [1] has as its system B16 melanocytes. Description: Inhibition rate of melanin content (melanogenesis) in B16 melanocytes. The note with it: Melanocyte, 72 hours, n = 4. How it is done:
B16 melanocytes(from SIBCB) were cultivated with RPMI-1640 culture fluid containing about 10% newborn calf serum and penicillium—streptomycin under the condition of 37° C., 5% CO2. The melanocytes were digested with about 0.125% trypsin (Difco, US) to be passaged or tested when the cell fusion reached more than about 80%.
After the cells dissolved in strong base solution, melanin was dissolved and then the OD was tested. Melanin content was determined by Hosoi improved method. (Victoria M, Virador, Nobuhiko Kobayashi et al, A standardized protocol for assessing regulators of pigmentation. Analytical Biochemistry, 1999, 270:207˜219.)
B16 melanocytes (1×10^5) were cultivated in 6-well cultured plate. After 24 hours incubation the solution was changed and different kinds of tested substances in different concentration were added respectively. The lingonberry extract III was prepared by the method in example 3, other substances were all bought from market.
After 72 hours, reactants were washed by PBS for 2 times, dried by air-drying, dissolved into 400 μl 1N NaOH (containing 1% DMSO), heated at 80° C. for 1 hour and then cooled. The OD was tested by enzyme-linked immunosorbent assay instrument at 475 nm.
Calculated every tested agents' inhibition rate of melanin content using the following formula: inhibition rate of melanin content=[1−(OD of tested group/well cell density of tested group)/(OD of control group/well cell density of control group)]*100%
Experiment method was the same as example 7. The lingonberry extract I, II and III used as tested substance were prepared by the method in example 1, 2 and 3 respectively.

Assay [2] addresses T1, B16 melanocytes' tyrosinase (Mus musculus, UniProt P11344).
T1 construct: The cells were dissolved by 1% Troton X-100; host or cells: B16 melanocytes (melanoma cells)
T1 sequence (P11344 19-533): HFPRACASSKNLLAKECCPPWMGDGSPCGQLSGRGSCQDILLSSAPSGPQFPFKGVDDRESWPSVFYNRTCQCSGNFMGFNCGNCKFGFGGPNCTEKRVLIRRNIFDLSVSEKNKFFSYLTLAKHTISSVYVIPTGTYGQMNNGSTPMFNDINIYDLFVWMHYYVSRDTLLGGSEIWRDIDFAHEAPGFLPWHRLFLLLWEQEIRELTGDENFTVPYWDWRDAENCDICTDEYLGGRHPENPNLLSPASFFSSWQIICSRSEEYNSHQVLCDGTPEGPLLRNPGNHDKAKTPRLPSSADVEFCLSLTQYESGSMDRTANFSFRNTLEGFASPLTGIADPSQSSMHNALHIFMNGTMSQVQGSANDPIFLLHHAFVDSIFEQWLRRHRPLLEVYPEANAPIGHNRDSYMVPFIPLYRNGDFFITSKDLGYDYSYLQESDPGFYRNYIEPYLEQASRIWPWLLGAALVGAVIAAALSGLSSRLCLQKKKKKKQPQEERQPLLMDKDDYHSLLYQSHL
Description: Inhibition rate of B16 melanocytes' tyrosinase activity (L-dopa oxidation, OD 475 nm). The settings on record: 3 days, n = 6. How it is done:
B16 melanocytes(from SIBCB) were cultivated with RPMI-1640 culture fluid containing 10% newborn calf serum and penicillium—streptomycin under the condition of about 37° C., 5% CO2. The melanocytes were digested with about 0.125% trypsin (Difco, US) to be passaged or tested when the cell fusion reached more than 80%.
Tyrosinase activity is determined by the speed of dopa being oxidized into dopaquinone. L-dopa was used as catalysis substrate. Optical density (OD) of dopaquinone was determined at 475 nm by improved Marlinez-Esparza method. (Ando H, Itoh A, Mishima Y et al., Correlation between the number of melanosomes, tyrosinase mRNA levels, and tyrosinase activity cultured murine melanoma cells in response to various melanogenesis regulatory agents. J Cell Physiol, 1995, 163: 608-614.). The higher of the OD, the stronger of the tyrosinase.
The lingonberry extract III was prepared by the method in example 3, other materials were all bought from market.
After 3 days of effects of tested substance, the supernatant was deserted and the remainder was washed for 3 times with pH 7.0 PBS after centrifuging at 1000 rpm for 5 min every time. The cells were dissolved by 1% Troton X-100 400 μl adding in every well of the cultured plate. 100 μl solution in every well was taken and then added into 96-well cultured plate. After pre-temperature at 37° C., 100 μl 1.7% L-dopa (sigma, US) was added into every well. The OD A value then was determined every 10 min within 1 hour at 475 nm and 37° C., using blank as zero adjustment.
Calculated every tested agents' inhibition rate of B16 melanocytes' tyrosinase activity using the following formula: inhibition rate of melanocytes' tyrosinase activity=(1−OD of tested group/OD of control group)*100%
Experiment method was the same as example 6. The lingonberry extract I, II and III used as tested substance were prepared by the method in example 1, 2 and 3 respectively.

Assay [3] concerns B16 melanocytes. Description: MTT cell multiplication / cell survival ratio of B16 melanocytes. The settings on record: blank = 100, n = 6. How it is done:
B16 melanocytes (from SIBCB) were cultivated with RPMI-1640 culture fluid containing about 10% newborn calf serum and penicillium—streptomycin under the condition of about 37° C., about 5% CO2. Digest the melanocytes with about 0.125% trypsin (Difco, US) when the cell fusion reached more than about 80%.
The activity of melanocytes multiplication was determined by measurement of […] (MTT). The B16 melanocytes at densities of about 1×10^5 were inoculated in 24-well cell cultured plate. The culture fluid was changed next day and the tested substances in different concentration were added individually: the lingonberry extract III prepared in example 3 (comprised anthocyanidin about 10%, OPC about 35% and resveratrol about 10%), arbutin bought from the market, and blank as control group.
After 20 hours cultivation and adding about 0.15 ml MTT, the cells were cultivated continuously for about 4 hours. Centrifuged at 3000 rpm for about 10 min and deserted the supernatant, cultivated cells in every well were added DMSO (about 1%) about 1 ml and shook for dissolving thoroughly. Then about 150 μl cultivated cells aspiration were added into 96-well cell cultured plate. The OD value of the aspiration was measured with MQX200 micro-plate spectrophotometer (Bio-Tek, US), at 570 nm excitation wave length and 630 nm reference wave length.
Calculated the inhibition ratio of tested agents on melanocytes using the following formula: melanocytes multiplication inhibition ratio=(1−OD of tested group/OD of control group)*100%
The experimental method was the same as example 4. The lingonberry extract III was prepared by the method in example 3, pine bark extract and grape seed extract were both bought from market, blank was used as control group.

With `OC[C@H]1O[C@@H](Oc2ccc(O)cc2)[C@H](O)[C@@H](O)[C@@H]1O` [arbutin], the inhibition at 1 µg/mL in assay [1] (1 mg/L) came to 7.27 ± 2.29%; in assay [2] (1 mg/L), 7.19%. The inhibition at 5 µg/mL was determined as 7.59 ± 0.35% in assay [1] (5 mg/L) and 10.4 ± 2.97% in assay [2] (5 mg/L). In addition, the inhibition at 10 µg/mL amounted to 6.23 ± 0.86% in assay [1] (10 mg/L) and 20.5 ± 1.63% in assay [2] (10 mg/L). In addition, the inhibition at 20 µg/mL in assay [1] (20 mg/L) worked out at 10.8 ± 0.33%; in assay [2] (20 mg/L), 46.4 ± 2.53%. Moreover, the inhibition at 30 µg/mL in assay [1] (30 mg/L) is 12.1 ± 1.3%; in assay [2] (30 mg/L), 53.3 ± 2.27%. Further, the cell survival ratio in assay [3] (20 mg/L) was determined as 110.72 ± 0.41%; in assay [3] (40 mg/L), 94.30 ± 0.45%; in assay [3] (60 mg/L), 91.74 ± 0.39%; in assay [3] (80 mg/L), 79.66 ± 1.08%.

What is called inhibition is the drop in the measured response relative to a control, in per cent. The low end stands for little suppression, the high end for strong suppression.
